Test results as given in the supplement of paper PMC10307832.

Legend:
Assay in all cases: relative viability (nuclei count vs DMSO), 5 days (fraction); higher = more cells survive
201T = tested on: 201T
Summary of the method: (§1)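 Relative viability was taken as the ratio of nuclei in treated wells to nuclei in vehicle wells. Lung cancer cell lines in 1536-well plates received compounds by pin tool one day after seeding, either one drug alone or a fixed anchor-drug dose plus five library-drug doses (not always all listed) in √10 steps. Nuclei were counted on 4× images after 5 days of treatment, and values are medians of duplicate plates.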

COR-L23 = tested on: COR-L23
Summary of the method: as §1

H3255 = tested on: H3255
Summary of the method: as §1

HARA = tested on: HARA
Summary of the method: as §1

HCC-366 = tested on: HCC-366
Summary of the method: as §1

HCC-78 = tested on: HCC-78
Summary of the method: as §1

LU99A = tested on: LU99A
Summary of the method: as §1

NCI-H1650 = tested on: NCI-H1650
Summary of the method: as §1

NCI-H1651 = tested on: NCI-H1651
Summary of the method: as §1

NCI-H1755 = tested on: NCI-H1755
Summary of the method: as §1

NCI-H1793 = tested on: NCI-H1793
Summary of the method: as §1

NCI-H2085 = tested on: NCI-H2085
Summary of the method: as §1

NCI-H2087 = tested on: NCI-H2087
Summary of the method: as §1

NCI-H23 = tested on: NCI-H23
Summary of the method: as §1

NCI-H3122 = tested on: NCI-H3122
Summary of the method: as §1

NCI-H322M = tested on: NCI-H322M
Summary of the method: as §1

NCI-H358 = tested on: NCI-H358
Summary of the method: as §1

NCI-H460 = tested on: NCI-H460
Summary of the method: as §1

NCI-H522 = tested on: NCI-H522
Summary of the method: as §1

NCI-H596 = tested on: NCI-H596
Summary of the method: as §1

NCI-H650 = tested on: NCI-H650
Summary of the method: as §1

PC-3 [JPC-3] = tested on: PC-3 [JPC-3]
Summary of the method: as §1

SK-LU-1 = tested on: SK-LU-1
Summary of the method: as §1

`Cc1cn(-c2cc(NC(=O)c3ccc(C)c(Nc4nccc(-c5cccnc5)n4)c3)cc(C(F)(F)F)c2)cn1` [Nilotinib] + N=C(N)NC(=N)NCCc1ccccc1 [Phenformin] (partner 250 µM) was tested, and the relative viability (201T; first compound 0.003162 µM) was 0.48, the relative viability (201T; first compound 0.01 µM) was 0.454 and the relative viability (201T; first compound 0.03162 µM) was 0.477. The relative viability (201T; first compound 0.1 µM) was 0.491, the relative viability (COR-L23; first compound 0.001 µM) was 0.448 and the relative viability (COR-L23; first compound 0.003162 µM) was 0.52. The relative viability (COR-L23; first compound 0.01 µM) was 0.591, the relative viability (COR-L23; first compound 0.03162 µM) was 0.42 and the relative viability (COR-L23; first compound 0.1 µM) was 0.45. The relative viability (H3255; first compound 0.001 µM) was 0.382, the relative viability (H3255; first compound 0.003162 µM) was 0.303 and the relative viability (H3255; first compound 0.03162 µM) was 0.403. It also gave a relative viability (H3255; first compound 0.1 µM) of 0.407, a relative viability (HARA; first compound 0.001 µM) of 0.402 and a relative viability (HARA; first compound 0.003162 µM) of 0.555. The relative viability (HARA; first compound 0.01 µM) was 0.613, the relative viability (HARA; first compound 0.03162 µM) was 0.29 and the relative viability (HARA; first compound 0.1 µM) was 0.322. For the same compound, the relative viability (HCC-366; first compound 0.001 µM) was 0.623, the relative viability (HCC-366; first compound 0.003162 µM) was 0.584 and the relative viability (HCC-366; first compound 0.01 µM) was 0.655. For the same compound, the relative viability (HCC-366; first compound 0.03162 µM) was 0.257, the relative viability (HCC-366; first compound 0.1 µM) was 0.555 and the relative viability (HCC-78; first compound 0.001 µM) was 0.786. For the same compound, the relative viability (HCC-78; first compound 0.003162 µM) was 0.643, the relative viability (HCC-78; first compound 0.01 µM) was 0.706 and the relative viability (HCC-78; first compound 0.03162 µM) was 0.637. The relative viability (HCC-78; first compound 0.1 µM) was 0.636, the relative viability (LU99A; first compound 0.001 µM) was 0.697 and the relative viability (LU99A; first compound 0.003162 µM) was 0.907. It also gave a relative viability (LU99A; first compound 0.01 µM) of 0.798, a relative viability (LU99A; first compound 0.03162 µM) of 0.611 and a relative viability (LU99A; first compound 0.1 µM) of 0.483. For the same compound, the relative viability (NCI-H1650; first compound 0.001 µM) was 0.464, the relative viability (NCI-H1650; first compound 0.003162 µM) was 0.437 and the relative viability (NCI-H1650; first compound 0.01 µM) was 0.385. The relative viability (NCI-H1650; first compound 0.03162 µM) was 0.32, the relative viability (NCI-H1650; first compound 0.1 µM) was 0.307 and the relative viability (NCI-H1651; first compound 0.001 µM) was 0.346. For the same compound, the relative viability (NCI-H1651; first compound 0.003162 µM) was 0.392, the relative viability (NCI-H1651; first compound 0.01 µM) was 0.437 and the relative viability (NCI-H1651; first compound 0.03162 µM) was 0.308. It also gave a relative viability (NCI-H1651; first compound 0.1 µM) of 0.356, a relative viability (NCI-H1755; first compound 0.001 µM) of 0.589 and a relative viability (NCI-H1755; first compound 0.003162 µM) of 0.616. It also gave a relative viability (NCI-H1755; first compound 0.01 µM) of 0.564, a relative viability (NCI-H1755; first compound 0.03162 µM) of 0.534 and a relative viability (NCI-H1755; first compound 0.1 µM) of 0.486. For the same compound, the relative viability (NCI-H1793; first compound 0.001 µM) was 0.36, the relative viability (NCI-H1793; first compound 0.003162 µM) was 0.363 and the relative viability (NCI-H1793; first compound 0.01 µM) was 0.357. For the same compound, the relative viability (NCI-H1793; first compound 0.03162 µM) was 0.196, the relative viability (NCI-H1793; first compound 0.1 µM) was 0.232 and the relative viability (NCI-H2085; first compound 0.001 µM) was 0.76. For the same compound, the relative viability (NCI-H2085; first compound 0.003162 µM) was 0.749, the relative viability (NCI-H2085; first compound 0.01 µM) was 0.769 and the relative viability (NCI-H2085; first compound 0.03162 µM) was 0.493. For the same compound, the relative viability (NCI-H2085; first compound 0.1 µM) was 0.581, the relative viability (NCI-H2087; first compound 0.001 µM) was 0.403 and the relative viability (NCI-H2087; first compound 0.003162 µM) was 0.518. The relative viability (NCI-H2087; first compound 0.01 µM) was 0.519, the relative viability (NCI-H2087; first compound 0.03162 µM) was 0.301 and the relative viability (NCI-H2087; first compound 0.1 µM) was 0.215. It also gave a relative viability (NCI-H23; first compound 0.001 µM) of 0.706, a relative viability (NCI-H23; first compound 0.003162 µM) of 0.58 and a relative viability (NCI-H23; first compound 0.01 µM) of 0.891. The relative viability (NCI-H23; first compound 0.03162 µM) was 0.624, the relative viability (NCI-H23; first compound 0.1 µM) was 0.594 and the relative viability (NCI-H3122; first compound 0.001 µM) was 0.36. It also gave a relative viability (NCI-H3122; first compound 0.003162 µM) of 0.375, a relative viability (NCI-H3122; first compound 0.01 µM) of 0.341 and a relative viability (NCI-H3122; first compound 0.03162 µM) of 0.352. For the same compound, the relative viability (NCI-H3122; first compound 0.1 µM) was 0.309, the relative viability (NCI-H322M; first compound 0.001 µM) was 0.781 and the relative viability (NCI-H322M; first compound 0.003162 µM) was 0.702. The relative viability (NCI-H322M; first compound 0.01 µM) was 0.87, the relative viability (NCI-H322M; first compound 0.03162 µM) was 0.741 and the relative viability (NCI-H322M; first compound 0.1 µM) was 0.833. The relative viability (NCI-H358; first compound 0.001 µM) was 0.317, the relative viability (NCI-H358; first compound 0.003162 µM) was 0.453 and the relative viability (NCI-H358; first compound 0.01 µM) was 0.394. It also gave a relative viability (NCI-H358; first compound 0.03162 µM) of 0.259, a relative viability (NCI-H358; first compound 0.1 µM) of 0.217 and a relative viability (NCI-H460; first compound 0.001 µM) of 0.298. It also gave a relative viability (NCI-H460; first compound 0.003162 µM) of 0.805, a relative viability (NCI-H460; first compound 0.01 µM) of 1.18 and a relative viability (NCI-H460; first compound 0.03162 µM) of 0.338. The relative viability (NCI-H460; first compound 0.1 µM) was 0.106, the relative viability (NCI-H522; first compound 0.001 µM) was 0.591 and the relative viability (NCI-H522; first compound 0.003162 µM) was 0.613. The relative viability (NCI-H522; first compound 0.01 µM) was 0.719, the relative viability (NCI-H522; first compound 0.03162 µM) was 0.663 and the relative viability (NCI-H522; first compound 0.1 µM) was 0.56. The relative viability (NCI-H596; first compound 0.001 µM) was 0.588, the relative viability (NCI-H596; first compound 0.003162 µM) was 0.697 and the relative viability (NCI-H596; first compound 0.01 µM) was 0.909. It also gave a relative viability (NCI-H596; first compound 0.03162 µM) of 0.475, a relative viability (NCI-H596; first compound 0.1 µM) of 0.432 and a relative viability (NCI-H650; first compound 0.001 µM) of 0.444. The relative viability (NCI-H650; first compound 0.003162 µM) was 0.428, the relative viability (NCI-H650; first compound 0.01 µM) was 0.447 and the relative viability (NCI-H650; first compound 0.03162 µM) was 0.38. It also gave a relative viability (NCI-H650; first compound 0.1 µM) of 0.397, a relative viability (PC-3 [JPC-3]; first compound 0.001 µM) of 0.463 and a relative viability (PC-3 [JPC-3]; first compound 0.003162 µM) of 0.49. It also gave a relative viability (PC-3 [JPC-3]; first compound 0.01 µM) of 0.475, a relative viability (PC-3 [JPC-3]; first compound 0.03162 µM) of 0.443 and a relative viability (PC-3 [JPC-3]; first compound 0.1 µM) of 0.482. For the same compound, the relative viability (SK-LU-1; first compound 0.001 µM) was 0.47, the relative viability (SK-LU-1; first compound 0.003162 µM) was 0.455 and the relative viability (SK-LU-1; first compound 0.01 µM) was 0.597. For the same compound, the relative viability (SK-LU-1; first compound 0.03162 µM) was 0.402 and the relative viability (SK-LU-1; first compound 0.1 µM) was 0.306.
